According to US8415469B2, “Compounds and methods for kinase modulation, and indications therefor” (Plexxikon Inc., priority 2005, dated 2013):

Target: T1, MAPKAPK2 (Homo sapiens, UniProt P49137)
T1 construct: purchased Invitrogen (assay run by Invitrogen)
Assay: Z'-Lyte FRET kinase assay (Invitrogen), MAPKAPK2
Format: biochemical
Conditions: read-out: IC50, activity toward kinase MAPKAPK2
How it was run: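 Inhibition was inferred from protease cleavage of non-phosphorylated peptide, measured as a coumarin/fluorescein ratio. Kinase reactions used 10 μM ATP for 1 h at room temperature.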

T1 sequence (P49137 whole entry): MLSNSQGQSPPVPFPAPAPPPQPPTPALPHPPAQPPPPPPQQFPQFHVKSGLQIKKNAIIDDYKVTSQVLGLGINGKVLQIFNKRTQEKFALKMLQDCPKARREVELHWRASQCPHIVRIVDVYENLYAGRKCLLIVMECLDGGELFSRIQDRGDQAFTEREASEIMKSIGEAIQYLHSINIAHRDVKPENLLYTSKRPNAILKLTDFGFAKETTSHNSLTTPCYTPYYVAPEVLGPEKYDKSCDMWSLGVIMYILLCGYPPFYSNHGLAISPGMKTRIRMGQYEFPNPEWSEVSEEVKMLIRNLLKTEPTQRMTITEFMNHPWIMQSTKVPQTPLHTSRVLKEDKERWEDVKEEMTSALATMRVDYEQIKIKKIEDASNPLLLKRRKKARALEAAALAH

IC50 [µM]	SMILES
≤ 10	CCCS(=O)(=O)Nc1ccc(F)c(C(=O)c2c[nH]c3ncccc23)c1F [Compound P-0007, Propane-1-sulfonic acid [2,4-difluoro-3-(1H-pyrrolo[2,3-b]pyridine-3-carbonyl)-phenyl]-amide]
≤ 10	Cn1cc(C(F)(F)F)c(-c2ccc(S(=O)(=O)NCc3c[nH]c4ncccc34)s2)n1 [Compound P-0041]
≤ 10	Cc1ccc(S(=O)(=O)NCc2c[nH]c3ncccc23)cc1 [Compound P-0058]
≤ 10	Fc1cc(F)cc(-c2ccnc3[nH]cc(Sc4ccccn4)c23)c1 [Compound P-0106]

Target: Frk (Homo sapiens, UniProt P42685)
Sequence (P42685 whole entry): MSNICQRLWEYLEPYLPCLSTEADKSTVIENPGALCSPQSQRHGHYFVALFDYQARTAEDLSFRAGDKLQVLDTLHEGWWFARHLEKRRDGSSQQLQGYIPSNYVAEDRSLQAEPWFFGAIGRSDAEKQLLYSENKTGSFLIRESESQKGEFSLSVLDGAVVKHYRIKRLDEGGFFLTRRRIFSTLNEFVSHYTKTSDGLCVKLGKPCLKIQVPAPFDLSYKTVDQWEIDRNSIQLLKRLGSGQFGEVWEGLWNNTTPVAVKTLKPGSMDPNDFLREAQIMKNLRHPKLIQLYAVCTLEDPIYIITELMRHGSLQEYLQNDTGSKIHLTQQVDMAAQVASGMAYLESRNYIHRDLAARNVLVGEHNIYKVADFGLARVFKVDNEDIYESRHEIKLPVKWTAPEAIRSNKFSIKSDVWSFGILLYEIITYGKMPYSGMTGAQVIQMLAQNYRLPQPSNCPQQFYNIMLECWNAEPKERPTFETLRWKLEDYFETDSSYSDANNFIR
Assay: AlphaScreen kinase assay, Frk
Format: biochemical
Conditions: read-out: IC50, activity toward kinase Frk
How it was run: (§1)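 Peptide phosphorylation detected by proximity: streptavidin donor beads bind biotinylated substrate, acceptor beads carry antibody to phosphorylated substrate, singlet oxygen transfer gives emission. Dose-response over 8 points (1:3 steps); stocks 20 mM in DMSO.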

IC50 [µM]	SMILES
≤ 10	CCCS(=O)(=O)Nc1ccc(F)c(C(=O)c2c[nH]c3ncccc23)c1F [Compound P-0007, Propane-1-sulfonic acid [2,4-difluoro-3-(1H-pyrrolo[2,3-b]pyridine-3-carbonyl)-phenyl]-amide]
≤ 10	CCCCNC(=O)Nc1ccc(F)c(C(=O)c2c[nH]c3ncc(-c4cccnc4)cc23)c1F [Compound P-1318, 1-Butyl-3-[2,4-difluoro-3-(5-pyridin-3-yl-1H-pyrrolo[2,3-b]pyridine-3-carbonyl)-phenyl]-urea]
≤ 10	COc1cccc(C(=O)c2c[nH]c3ncc(-c4cccc(NC(C)=O)c4)cc23)c1F [Compound P-1336, N-{3-[3-(2-Fluoro-3-methoxy-benzoyl)-1H-pyrrolo[2,3-b]pyridin-5-yl]-phenyl}-acetamide]
≤ 10	OCCOc1ccc(F)c(Cc2c[nH]c3ncc(-c4cccnc4)cc23)c1F [Compound P-1394, 2-[2,4-Difluoro-3-(5-pyridin-3-yl-1H-pyrrolo[2,3-b]pyridin-3-ylmethyl)-phenoxy]-ethanol]

Target: T2, IKK beta (Homo sapiens, UniProt O14920)
T2 sequence (O14920 1-756): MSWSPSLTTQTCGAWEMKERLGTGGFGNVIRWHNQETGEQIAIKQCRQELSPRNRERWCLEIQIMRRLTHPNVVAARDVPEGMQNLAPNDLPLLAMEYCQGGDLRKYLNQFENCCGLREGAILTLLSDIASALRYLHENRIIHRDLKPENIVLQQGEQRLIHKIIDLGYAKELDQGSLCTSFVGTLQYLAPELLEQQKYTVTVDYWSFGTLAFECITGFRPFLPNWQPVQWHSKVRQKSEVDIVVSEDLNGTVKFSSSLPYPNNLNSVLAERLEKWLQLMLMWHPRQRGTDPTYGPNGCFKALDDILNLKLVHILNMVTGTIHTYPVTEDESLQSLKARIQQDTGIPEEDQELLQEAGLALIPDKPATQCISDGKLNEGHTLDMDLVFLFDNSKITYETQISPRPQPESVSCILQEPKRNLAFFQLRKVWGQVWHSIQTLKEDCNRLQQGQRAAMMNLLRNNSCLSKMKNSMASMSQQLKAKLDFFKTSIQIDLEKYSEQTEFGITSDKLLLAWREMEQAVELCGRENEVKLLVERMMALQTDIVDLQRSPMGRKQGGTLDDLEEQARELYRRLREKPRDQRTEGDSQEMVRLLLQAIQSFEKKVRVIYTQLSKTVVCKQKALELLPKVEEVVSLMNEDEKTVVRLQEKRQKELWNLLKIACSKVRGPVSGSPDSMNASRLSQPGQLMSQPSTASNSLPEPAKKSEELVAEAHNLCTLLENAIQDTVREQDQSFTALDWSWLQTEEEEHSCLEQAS
Assay: AlphaScreen kinase assay, IKK beta
Format: biochemical
Conditions: read-out: IC50, activity toward kinase IKK beta

IC50 [µM]	SMILES
≤ 10	CCCS(=O)(=O)Nc1ccc(F)c(C(=O)c2c[nH]c3ncccc23)c1F [Compound P-0007, Propane-1-sulfonic acid [2,4-difluoro-3-(1H-pyrrolo[2,3-b]pyridine-3-carbonyl)-phenyl]-amide]
≤ 10	NC(=O)c1ccc(-c2ccnc3[nH]cc(C(=O)c4cc(F)ccc4F)c23)cc1 [Compound P-0013]
≤ 10	NC(=O)c1ccc(-c2ccnc3[nH]cc(C(=O)c4ccccc4F)c23)cc1 [Compound P-0014]
≤ 10	Nc1ccnc2[nH]cc(C(=O)c3ccccc3)c12 [Compound P-0029]
≤ 10	Fc1cc(F)cc(-c2ccnc3[nH]cc(Sc4ccccn4)c23)c1 [Compound P-0106]

Target: T3, TEC (Homo sapiens, UniProt P42680)
T3 sequence (P42680 1-631): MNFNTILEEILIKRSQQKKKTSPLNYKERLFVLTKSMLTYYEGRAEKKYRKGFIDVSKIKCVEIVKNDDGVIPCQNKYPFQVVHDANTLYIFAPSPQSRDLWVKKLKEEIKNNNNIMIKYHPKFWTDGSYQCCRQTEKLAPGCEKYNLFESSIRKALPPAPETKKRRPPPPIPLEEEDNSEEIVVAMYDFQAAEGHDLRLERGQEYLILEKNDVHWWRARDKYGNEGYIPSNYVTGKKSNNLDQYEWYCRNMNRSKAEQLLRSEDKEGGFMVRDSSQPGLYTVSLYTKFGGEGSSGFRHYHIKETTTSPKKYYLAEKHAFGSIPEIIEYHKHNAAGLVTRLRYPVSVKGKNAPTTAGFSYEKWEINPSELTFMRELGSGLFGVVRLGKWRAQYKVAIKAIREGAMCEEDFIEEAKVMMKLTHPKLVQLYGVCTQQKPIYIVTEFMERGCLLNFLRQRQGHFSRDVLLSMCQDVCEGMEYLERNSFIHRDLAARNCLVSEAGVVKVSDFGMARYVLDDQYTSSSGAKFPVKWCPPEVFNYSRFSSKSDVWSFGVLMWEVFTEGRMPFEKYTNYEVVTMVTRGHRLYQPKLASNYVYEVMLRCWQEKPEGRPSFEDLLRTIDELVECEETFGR
Assay: AlphaScreen kinase assay, TEC
Format: biochemical
Conditions: read-out: IC50, activity toward kinase TEC
How it was run: as §1

IC50 [µM]	SMILES
≤ 10	Cc1ccccc1C(=O)c1c[nH]c2nccc(-c3ccc(C(N)=O)cc3)c12 [Compound P-0017]
≤ 10	O=C(O)/C=C/c1cccc(-c2cnc3[nH]cc(C(=O)c4ccccc4F)c3c2)c1 [Compound P-0033]
≤ 10	Cc1ccccc1C(=O)c1c[nH]c2nccc(-c3cccc(N)c3)c12 [Compound P-0044]
≤ 10	CCCS(=O)(=O)Nc1ccc(F)c(C(=O)c2c[nH]c3ncc(-c4cccnc4)cc23)c1F [Compound P-0088, Propane-1-sulfonic acid [2,4-difluoro-3-(5-pyridin-3-yl-1H-pyrrolo[2,3-b]pyridine-3-carbonyl)-phenyl]-amide]
≤ 10	CN(C)S(=O)(=O)Nc1ccc(F)c(Cc2c[nH]c3ncc(-c4cccnc4)cc23)c1F [Compound P-0166]
